From patent publication US8603518B2, “Hydroxybutyrate and poly-hydroxybutyrate as components of animal feed or feed additives” (Universiteit Gent, priority 2006, dated 2013)

Assays:
broiler chickens [1] = assay: Growth performance trial with broiler chickens, day 8 to day 22 (Rhodobacter sphaeroides biomass); format: in vivo, chickens (ROSS PM3); conditions: dose 10 mg/kg
Description: A growth performance trial with broiler chickens was performed from day 8 to day 22. The chickens were housed in wire-floored battery cages. From day-old until day 8, the chickens were fed a pre-experimental diet based on wheat, maize and soybean meal. In the experimental period (day 8 to 22) the chickens received diets based on wheat, rye and soybean meal (composition see Table 1). Groups of birds were weighed on days 8, 15, and 22. The feed consumption for the intermediate periods was determined and body weight gain and feed conversion ratio were calculated.

broiler chickens [2] = assay: Second broiler chicken growth trial with crystalline PHB, day 8 to day 29; format: in vivo; conditions: Day 8-29; dose 10 mg/kg
[3] = test system: Artemia nauplii infected with Vibrio campbellii LMG21363; assay: In vivo challenge test of Artemia nauplii with Vibrio campbellii LMG21363 (Example 8); design: species or system Artemia franciscana; conditions: 2 days challenge, mean ± standard error
Description: All challenge tests were performed with high quality hatching cysts of Artemia franciscana (EG® Type, batch 6940, INVE Aquaculture, Baasrode, Belgium). Two hundred mg of cysts were hydrated in 18 ml of tap water during 1 h. Sterile cysts and nauplii were obtained via decapsulation, adapted from the protocol described by Marques et al. (2004). […] The decapsulation was stopped after 2 min by adding 14 ml of Na2S2O3 (10 gl^−1). During the reaction, 0.22 μm filtered aeration was provided. The decapsulated cysts were washed with autoclaved artificial seawater containing 35 g l^−1 of Instant Ocean synthetic sea salt (Aquarium Systems Inc., Sarrebourg, France). The cysts were resuspended in a 50 ml tube containing 30 ml of filtered and autoclaved artificial seawater and hatched for 24 h on a rotor (4 min^−1) at 28° C. with constant illumination (approximately 2000 lux). Vibrio campbellii LMG21363 was stored in 40% glycerol at −80° C. Ten μl of this stored culture was inoculated into fresh Marine Broth (Difco Laboratories, Detroit, USA) and incubated overnight at 28° C. under constant agitation (100 min-1). The grown cultures of Vibrio campbellii were washed in autoclaved artificial seawater and the suspensions were diluted to an OD600 of approximately 0.1. 20 μl of the diluted suspensions was inoculated into the Artemia culture water. Aeromonas hydrophila LVS3 was used as feed for the nauplii (Defoirdt et al., 2005). The strain was grown overnight on Marine Agar (Difco Laboratories, Detroit, USA), suspended in sterile artificial seawater, diluted to an OD600 of approximately 1 and autoclaved. 300 μl of the autoclaved suspension was added to the Artemia culture water. […] Challenge tests were performed as described by Defoirdt et al. (2005), with slight modifications. Briefly, after hatching, groups of 20 nauplii were transferred to new sterile 50 ml tubes that contained 20 ml of filtered and autoclaved artificial seawater. The tubes were inoculated with Vibrio campbellii LMG21363 (except for the control, where no pathogen was added) and fed with LVS3. For the experiment with fatty acids, the fatty acids were dissolved in artificial seawater at different concentrations (25, 50 and 100 mM). The pH of the solutions was brought back to 7 and the solutions were filtersterilised over a 0.22 μm filter (Millipore, Bedford, USA). After feeding and the addition of the appropriate chemical and/or bacteria, the falcon tubes were put back on the rotor and kept at 28° C. […] All manipulations were done under a laminar flow hood in order to maintain sterility of the cysts and nauplii. Each treatment was done in triplicate.

[4] = test system: Vibrio campbellii LMG21363; assay: Growth of Vibrio campbellii LMG21363 in LB medium (OD600); format: cell-based; conditions: pH 6
Description: Vibrio campbellii LMG21363 was grown overnight in LB medium on a shaker at 28° C. Subsequently, the suspension was diluted 1:50 (v/v) in LB medium supplemented with butyrate (Sigma-Aldrich, Bornem, Belgium) or β-hydroxybutyrate (Sigma-Aldrich, Bornem, Belgium). For each compound, three solutions were made with the following concentrations: 25, 50 and 100 mM. LB medium without supplements was used as a control. The pH of all solutions was set at 6, 7 or 8. After inoculation, the suspensions were incubated at 28° C. in a static mode. Growth was monitored by measuring the optical density (OD600) during 20 h. Each treatment was performed in triplicate.

[5] = 25 mM in culture water at start
[6] = 100 mM in culture water at start

Work on `COC[C@H]1O[C@@H](OC2OC[C@@H]3O[C@]4(O[C@H]3[C@H]2OC(=O)C(C)C)O[C@H](C)[C@@](O)(C(C)=O)[C@@H]2OCO[C@H]24)[C@@H](OC)[C@@H](O)[C@@H]1O[C@@H]1O[C@H](C)[C@H](OC)[C@H](O[C@H]2C[C@@]3(C)OC4(C[C@@H](O)[C@H](O[C@H]5C[C@@H](O)[C@H](OC(=O)c6c(C)c(Cl)c(O)c(Cl)c6OC)[C@@H](C)O5)[C@@H](C)O4)O[C@@H]3[C@@H](C)O2)[C@H]1O` (stereo partly drawn) [Avilamycin] yielded a Feed conversion (broiler chickens [1]; Day 8-15) of 1.652 ± 0.090 g feed/g gain, a Feed intake (broiler chickens [1]; Day 8-15) of 552 ± 43 g/bird and a Weight gain (broiler chickens [1]; Day 8-15) of 334 ± 20 g/bird. The Feed conversion (broiler chickens [1]; Day 8-22) was 1.778 ± 0.072 g feed/g gain, the “Feed conversion relative to control (control 100.0)” value (broiler chickens [1]; Day 8-22) was 94.9 and the Feed intake (broiler chickens [1]; Day 8-22) was 1441 ± 100 g/bird. For the same compound, the “Feed intake relative to control (control 100.0)” value (broiler chickens [1]; Day 8-22) was 101.1, the Weight gain (broiler chickens [1]; Day 8-22) was 810 ± 39 g/bird and the “Weight gain relative to control (control 100.0)” value (broiler chickens [1]; Day 8-22) was 106.7. It also gave a Feed conversion (broiler chickens [1]; Day 15-22) of 1.867 ± 0.078 g feed/g gain, a Feed intake (broiler chickens [1]; Day 15-22) of 889 ± 67 g/bird and a Weight gain (broiler chickens [1]; Day 15-22) of 476 ± 24 g/bird. The FCR (broiler chickens [2]) was 1.756 ± 0.079 g feed/g gain, the “FCR, % of control” value (broiler chickens [2]) was 94.5% and the Feed intake (broiler chickens [2]) was 2402 ± 196 g/bird. The “Feed intake, % of control” value (broiler chickens [2]) was 101.0%, the Weight gain (broiler chickens [2]) was 1367 ± 85 g/bird and the “Weight gain, % of control” value (broiler chickens [2]) was 106.6%.
In the case of `CCCC(=O)O` [butyrate], the Survival [3, 5] is reported as 48 ± 2 % and the Survival [3, 6] is reported as 50 ± 5 %.
For `CC(O)CC(=O)O` (stereo not drawn) [β-hydroxybutyrate, 3-hydroxybutyrate], the “Growth of Vibrio campbellii” value ([4]; 100 mM) was “strongly inhibited”, the “Growth of Vibrio campbellii” value ([4]; lower concentrations) was “not completely inhibited” and the Survival [3, 5] was 38 ± 15%. It also gave a Survival [3, 6] of 40 ± 3 %.
